This is an account of results in US10934277B2, “Enantiomerically purified GPER agonist for use in treating disease states and conditions” (Linnaeus Therapeutics, Inc., priority 2018, dated 2021).

Data set [1] can be described thus: Physical stability of Form B (desolvation). Type of data set: physicochemical. On the procedure: The physical stability of Form B was investigated. […] Vacuum at 70° C.
Data set [2] in a line: Disproportionation of salts in water slurry. The data set is classed as physicochemical. An excerpt: The possibility of disproportionation in water was investigated. […] The excess solids were recovered and reanalyzed by XRPD for evidence of freebase or benzenesulfonic acid.
The possibility of disproportionation in water was investigated. […] The excess solids were recovered and reanalyzed by XRPD for evidence of freebase or naphthalene-2-sulfonic acid.

Data set [3] can be described thus: Plasma concentration of SRR G-1 in rats after oral dosing (LC-MS/MS). The data set is classed as in vivo. The conditions noted are these: rat, PO 10 mg/kg, individual animals (R1-R9). An excerpt:
The results are shown in Tables 22-24 for each respectively.

Data set [4] can be described thus: Approximate solubility of SRR G-1 Form A in solvents. The data set is classed as physicochemical.
Data set [5] can be described thus: Solubility measurement in pH buffers. Type of data set: physicochemical. The conditions noted are these: 37° C., 24 hrs; for solubility at 24 h: aqueous buffer, thermodynamic from solid, read-out: Solubility; for Form Conversion: XRPD of residual solids.
Data set [6] is described as follows: Kinetic solubility measurement in bio-relevant media. Type of data set: physicochemical. The settings on record: 37° C.; for Form Change: SGF; for solubility at 1 h / solubility at 2 h / solubility at 4 h / solubility at 24 h: thermodynamic from solid.
The nature of data set [7]: Dynamic Vapor Sorption/Desorption (DVS). The data set is classed as physicochemical. An excerpt: The weight change through the sorption/desorption cycle was less than 0.3% weight. Hysteresis was not observed. The material recovered from the Dynamic Vapor Sorption experiment was Form A by XRPD.
Moisture sorption/desorption data were collected on a VTI SGA-100 Vapor Sorption Analyzer. NaCl and PVP were used as calibration standards. Samples were not dried prior to analysis. Sorption and desorption data were collected over a range from 5% to 95% RH at 10% RH increments under a nitrogen purge. The equilibrium criterion used for analysis was less than 0.0100% weight change in 5 minutes with a maximum equilibration time of 3 hours. Data were not corrected for the initial moisture content of the samples.

Data set [8] in a line: Physical stability of amorphous material. Type of data set: physicochemical. As to the method:
Amorphous material crystallized to Form A upon exposure to either elevated temperature (within 4 days at 60° C.) or humidity (within 12 days at 75% RH).

The next data set deals with YUMM1.7 melanoma cells. Briefly: YUMM1.7 proliferation assay (4 day growth). Type of data set: cell-based. The conditions noted are these: 500 nM. On the procedure:
YUMM1.7 cells were cultured for at least 1 passage after thawing and were cultured in DMEM with 5% FBS (Invitrogen) and 1% antibiotic-antimycotic (gibco) at 37C 5% CO2. Proliferation assays were performed by plating 15,000 cells in 12-well plates with 5 replicates per condition tested. Media and drugs were refreshed on Day 2. On Day 4, cells were trypsinized using 0.25 ml 0.05% Trypsin with EDTA (Invitrogen) for 5 minutes to detach from the plate, mixed with 0.75 ml of culture media, and counted using a hemocytometer.
Starting cell numbers were 15,000.

Values after ≈ are worked out from the molar mass of the structure shown. Values joined by “and” are separate entries in the source; they are usually repeats but may differ in a detail not shown here. Equal entries are not always repeated. Where only a bound is given, the exact number is not on record here.

For the compound `CC(=O)c1ccc2c(c1)[C@@H]1C=CC[C@@H]1[C@H](c1cc3c(cc1Br)OCO3)N2` [Form B, 1-((3aS,4R,9bR)-4-(6-bromobenzo[d][1,3]dioxol-5-yl)-3a,4,5,9b-tetrahydro-3H-cyclopenta[c]quinolin-8-yl)ethan-1-one], the desolvation result is reported as “Almost complete desolvation” in data set [1] (exposure to 90 to 100° C. for 25 minutes), “Complete desolvation to Form C” in [1] (exposure to 120° C.) and “not sufficient for desolvation to occur” in data set [1] (vacuum at 70° C. (or below)).

Regarding `CC(=O)c1ccc2c(c1)[C@@H]1C=CC[C@@H]1[C@H](c1cc3c(cc1Br)OCO3)N2.O=S(=O)(O)c1ccccc1` [SRR G-1 Besylate Form A], the disproportionation in water result in data set [2] (slurried in water for 4 days, XRPD of recovered solids) is “disproportionation did not occur”. Further, the “Plasma Conc.” value is 39.2 ng/mL and 35.2 ng/mL and 34.1 ng/mL in data set [3] (time 0.500 h); 43.9 ng/mL and 42.0 ng/mL and 44.5 ng/mL in [3] (time 1.00 h); 28.5 ng/mL and 30.6 ng/mL and 32.3 ng/mL in data set [3] (time 2.00 h); 20.0 ng/mL and 16.7 ng/mL and 19.5 ng/mL in [3] (time 4.00 h); 8.17 ng/mL and 5.78 ng/mL and 6.18 ng/mL in data set [3] (time 8.00 h); 0.837 ng/mL and 0.668 ng/mL and 0.647 ng/mL in data set [3] (time 24.0 h, LLOQ 0.100 ng/mL).

Broadly, the solubility is how much of the substance goes into solution per volume. With `CC(=O)c1ccc2c(c1)[C@@H]1C=CC[C@@H]1[C@H](c1cc3c(cc1Br)OCO3)N2` [SRR G-1 Form A, 1-((3aS,4R,9bR)-4-(6-bromobenzo[d][1,3]dioxol-5-yl)-3a,4,5,9b-tetrahydro-3H-cyclopenta[c]quinolin-8-yl)ethan-1-one], the solubility is 2000 µg/mL (≈ 4850 µM) in data set [4] (oil or lipid, sesame oil); 24000 µg/mL (≈ 58200 µM) in [4] (organic solvent or mixture, ACN); more than 89000 µg/mL in [4] (organic solvent or mixture, DCM); more than 203000 µg/mL in [4] (organic solvent or mixture, DMSO); more than 65000 µg/mL in data set [4] (organic solvent or mixture, EtOAc); 7000 µg/mL (≈ 17000 µM) in [4] (organic solvent or mixture, EtOH). Moreover, the solubility in data set [4] (organic solvent or mixture, IPA) is 4000 µg/mL (≈ 9700 µM); in data set [4] (organic solvent or mixture, MeOH) it was 6000 µg/mL (≈ 14600 µM); in data set [4] (organic solvent or mixture, THF), more than 67000 µg/mL; in data set [4] (organic solvent or mixture, acetone) it was more than 122000 µg/mL; in data set [4] (organic solvent or mixture, diethyl ether), 8000 µg/mL (≈ 19400 µM); in [4] (organic solvent or mixture, toluene), 40000 µg/mL (≈ 97000 µM). In data set [4] (water), this compound gave a solubility of less than 2000 µg/mL. The solubility at 24 h in data set [5] (pH 2.0 buffer), in data set [5] (pH 3.0 buffer), in [5] (pH 4.0 buffer), in data set [5] (pH 5.0 buffer), in data set [5] (pH 6.0 buffer) and in data set [5] (pH 7.0 buffer) was less than 0.72 µg/mL each time. Moreover, the solubility at 24 h in data set [5] (pH 8.0 buffer) was less than 0.72 µg/mL; in data set [6] (simulated gastric fluid, SGF (pH 1.8), 24 h), 5.7 µg/mL (≈ 13.8 µM); in data set [6] (FaSSIF (pH 6.5), 24 h), 7.3 µg/mL (≈ 17.7 µM); in data set [6] (FeSSIF (pH 5.0), 24 h), 37 µg/mL (≈ 89.7 µM). For the same compound, the “Form Conversion” value in [5] (pH 2.0 buffer), in [5] (pH 3.0 buffer), in data set [5] (pH 4.0 buffer), in data set [5] (pH 5.0 buffer), in [5] (pH 6.0 buffer) and in data set [5] (pH 7.0 buffer) was “No” throughout. The “Form Conversion” value in data set [5] (pH 8.0 buffer) was “No”. The “FC (Form Change)” value was “No” in [6] (FaSSIF, 1 h); “No” in data set [6] (FaSSIF, 2 h); “No” in data set [6] (FaSSIF, 4 h); “No” in data set [6] (FaSSIF, 24 h); “No” in data set [6] (FeSSIF, 1 h); “No” in data set [6] (FeSSIF, 2 h). Further, the “FC (Form Change)” value in [6] (FeSSIF, 4 h) is “No”; in data set [6] (FeSSIF, 24 h), “No”. The “Form Change” value in data set [6] (1 h), in [6] (2 h), in data set [6] (4 h) and in data set [6] (24 h) was “No” throughout. Besides, the solubility at 1 h in data set [6] (simulated gastric fluid, SGF (pH 1.8), 1 h) was 5.9 µg/mL (≈ 14.3 µM); in data set [6] (FaSSIF (pH 6.5), 1 h) it was 7.1 µg/mL (≈ 17.2 µM); in data set [6] (FeSSIF (pH 5.0), 1 h), 36 µg/mL (≈ 87.3 µM). Further, the solubility at 2 h in data set [6] (simulated gastric fluid, SGF (pH 1.8), 2 h) is 6.2 µg/mL (≈ 15 µM); in data set [6] (FaSSIF (pH 6.5), 2 h) it was 6.8 µg/mL (≈ 16.5 µM); in data set [6] (FeSSIF (pH 5.0), 2 h), 37 µg/mL (≈ 89.7 µM). The solubility at 4 h in data set [6] (simulated gastric fluid, SGF (pH 1.8), 4 h) is 6.6 µg/mL (≈ 16 µM); in data set [6] (FaSSIF (pH 6.5), 4 h), 7.1 µg/mL (≈ 17.2 µM); in data set [6] (FeSSIF (pH 5.0), 4 h), 38 µg/mL (≈ 92.2 µM). For the same compound, the hygroscopicity result in data set [7] (DVS isotherm) is reported as “low hygroscopicity”. Besides, the “weight change through the sorption/desorption cycle” value in [7] (DVS, 5% to 95% RH) was “less than 0.3 % weight”.

For the compound `CC(=O)c1ccc2c(c1)[C@@H]1C=CC[C@@H]1[C@H](c1cc3c(cc1Br)OCO3)N2` [Amorphous material], the “time to crystallization to Form A” value is given as not above 4 days in data set [8] (elevated temperature, 60° C.) and not above 12 days in data set [8] (humidity, 75% RH).

`CC(=O)c1ccc2c(c1)[C@@H]1C=CC[C@@H]1[C@H](c1cc3c(cc1Br)OCO3)N2.O=S(=O)(O)c1ccc2ccccc2c1` [SRR G-1 Napsylate Form A]: in [2] (slurried in water for 5 days, XRPD of recovered solids (freebase Form A recovered)), the disproportionation in water result is listed as “disproportionation occurred”. In addition, the “Plasma Conc.” value is 62.2 ng/mL and 50.6 ng/mL and 22.6 ng/mL in data set [3] (time 0.500 h); 81.9 ng/mL and 67.5 ng/mL and 33.2 ng/mL in data set [3] (time 1.00 h); 46.6 ng/mL and 39.9 ng/mL and 24.3 ng/mL in [3] (time 2.00 h); 14.6 ng/mL and 14.0 ng/mL and 15.6 ng/mL in data set [3] (time 4.00 h); 5.45 ng/mL and 6.09 ng/mL and 3.97 ng/mL in [3] (time 8.00 h); 0.641 ng/mL and 0.558 ng/mL and 0.435 ng/mL in data set [3] (time 24.0 h, LLOQ 0.100 ng/mL).

As to `CC(=O)c1ccc2c(c1)[C@@H]1C=CC[C@@H]1[C@H](c1cc3c(cc1Br)OCO3)N2` (racemic) [Racemic G-1, (±)1-(4-(6-bromobenzo[d][1,3]dioxol-5-yl)-(3 aS*,4R*,9bR*)-tetrahydro-3H-cyclopenta[c]quinolin-8-yl)ethan-1-one, reference compound], the “doubling compared with that seen with the vehicle” value in the data set on YUMM1.7 melanoma cells (4 days) is “about half”. This compound also showed a Doublings in the data set on YUMM1.7 melanoma cells (4 days, starting cell number 15,000) of 3.4. In addition, in the data set with YUMM1.7 melanoma cells (starting cell number 15,000, 5 replicates), the “cell count after 4 days of growth (single replicates)” value was 16 tens of thousands and 18 tens of thousands and 19 tens of thousands and 17 tens of thousands and 24 tens of thousands. Moreover, the “average cell count after 4 days of growth” value with YUMM1.7 melanoma cells (starting cell number 15,000, average of 5 replicates) is 18.8 tens of thousands.
